# Measurements: patent US20210283261A1, “Compositions and Methods for Treating ALK-Mediated Cancer” (ICAHN SCHOOL OF MEDICINE AT MOUNT SINAI, priority 2017, published 2021)
# Molecular target: T1, ALK fusion protein (Homo sapiens, UniProt Q9UM73)
# T1 construct: endogenous in cells; host or cells: NCI-H3122; the other entry of the earlier key: EML4 (Q9HC35, Echinoderm microtubule-associated protein-like 4)
# Assay: Western blot of ALK fusion protein levels in NCI-H3122 cells
# Assay type: cell-based
# Settings: NCI-H3122, NCI-H3122 cells, 500 nM, Western blot; read-out: ALK fusion protein degradation, NCI-H3122 (500 nM)
# Experimental: SU-DHL-1, NCI-H3122 and NCI-H2228 cells were cultured in RPMI-1640 medium supplemented with 10% fetal bovine serum, 50 μg/mL penicillin and streptomycin. Cells were cultured in a 37° C. incubator with 5% CO2.
# Cells were washed with cold PBS once and lysed in 1× Laemmli loading buffer directly. Lysates were heated at 99° C. for […], and resolved on 4-15% precast SDS-PAGE (BIO-RAD) and transferred onto PVDF membrane. Membrane was blocked in 5% milk in Tris-buffered saline and Tween 20 (TBST) for 1 h at room temperature, followed by incubation with a primary antibody overnight at 4° C., and a horseradish peroxidase (HRP)-conjugated secondary antibody for 1 h at room temperature. The membrane was imaged by a ChemiDoc MP imaging system (BIO-RAD). Antibodies against GAPDH (abeam), Phospho-ALK (Tyr1507), ALK (Cell Signaling Technology), Tubulin (Santa Cruz) were purchased commercially. […]
# T1 sequence (Q9UM73 with tags, fused parts or gaps): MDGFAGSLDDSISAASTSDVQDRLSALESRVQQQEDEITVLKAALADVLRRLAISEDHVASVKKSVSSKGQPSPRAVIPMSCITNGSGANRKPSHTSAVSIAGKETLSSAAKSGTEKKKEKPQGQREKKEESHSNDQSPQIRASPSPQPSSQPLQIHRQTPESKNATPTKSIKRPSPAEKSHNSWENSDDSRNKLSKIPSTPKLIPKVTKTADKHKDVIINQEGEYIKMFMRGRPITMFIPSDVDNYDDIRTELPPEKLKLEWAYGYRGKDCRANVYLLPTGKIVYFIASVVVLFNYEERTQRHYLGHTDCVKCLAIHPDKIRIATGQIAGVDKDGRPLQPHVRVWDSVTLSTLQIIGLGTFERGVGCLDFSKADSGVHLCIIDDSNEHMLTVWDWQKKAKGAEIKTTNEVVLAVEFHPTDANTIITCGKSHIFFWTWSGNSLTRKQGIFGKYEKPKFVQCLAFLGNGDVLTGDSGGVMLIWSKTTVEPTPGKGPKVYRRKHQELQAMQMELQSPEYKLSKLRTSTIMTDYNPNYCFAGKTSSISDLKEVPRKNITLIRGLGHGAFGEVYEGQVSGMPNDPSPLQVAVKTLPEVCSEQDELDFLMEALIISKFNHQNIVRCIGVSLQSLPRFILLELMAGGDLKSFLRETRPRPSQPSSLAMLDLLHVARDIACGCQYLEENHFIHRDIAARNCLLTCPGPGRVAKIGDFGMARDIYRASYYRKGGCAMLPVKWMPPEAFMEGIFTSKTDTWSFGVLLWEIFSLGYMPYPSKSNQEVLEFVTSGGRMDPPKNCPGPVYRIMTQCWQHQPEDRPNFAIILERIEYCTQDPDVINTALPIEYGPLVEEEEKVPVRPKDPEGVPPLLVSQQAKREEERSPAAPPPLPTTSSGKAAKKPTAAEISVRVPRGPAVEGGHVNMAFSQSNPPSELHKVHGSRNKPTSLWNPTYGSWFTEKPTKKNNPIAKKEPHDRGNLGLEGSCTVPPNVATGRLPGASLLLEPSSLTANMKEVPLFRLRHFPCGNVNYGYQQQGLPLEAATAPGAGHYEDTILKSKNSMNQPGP
row,Compound,Dmax at 0.5 µM [%]
1,"Cc1cc(Nc2ncc(Cl)c(Nc3ccccc3S(=O)(=O)C(C)C)n2)c(OC(C)C)cc1C1CCN(C(=O)CCOCCC(=O)N[C@H](C(=O)N2C[C@H](O)C[C@H]2C(=O)NCc2ccc(-c3scnc3C)cc2)C(C)(C)C)CC1 [CZ47-14, (2S,4R)-1-((S)-2-(3-(3-(4-(4-((5-Chloro-4-((2-(isopropylsulfonyl)phenyl)amino)pyrimidin-2-yl)amino)-5-isopropoxy-2-methylphenyl)piperidin-1-yl)-3-oxopropoxy)propanamido)-3,3-dimethylbutanoyl)-4-hydroxy-N-(4-(4-methylthiazol-5-yl)benzyl)pyrrolidine-2-carboxamide]",20 to 80
2,"Cc1cc(Nc2ncc(Cl)c(Nc3ccccc3S(=O)(=O)C(C)C)n2)c(OC(C)C)cc1C1CCN(C(=O)CCOCCOCCC(=O)N[C@H](C(=O)N2C[C@H](O)C[C@H]2C(=O)NCc2ccc(-c3scnc3C)cc2)C(C)(C)C)CC1 [CZ47-16, (2S,4R)-1-((S)-2-(3-(2-(3-(4-(4-((5-Chloro-4-((2-(isopropylsulfonyl)phenyl)amino)pyrimidin-2-yl)amino)-5-isopropoxy-2-methylphenyl)piperidin-1-yl)-3-oxopropoxy)ethoxy)propanamido)-3,3-dimethylbutanoyl)-4-hydroxy-N-(4-(4-methylthiazol-5-yl)benzyl)pyrrolidine-2-carboxamide]",< 20
3,"Cc1cc(Nc2ncc(Cl)c(Nc3ccccc3S(=O)(=O)C(C)C)n2)c(OC(C)C)cc1C1CCN(C(=O)COCCOCCOCC(=O)N[C@H](C(=O)N2C[C@H](O)C[C@H]2C(=O)NCc2ccc(-c3scnc3C)cc2)C(C)(C)C)CC1 [CZ47-17, (2S,4R)-1-((S)-2-(tert-Butyl)-14-(4-(4-((5-chloro-4-((2-(isopropylsulfonyl)phenyl)amino)pyrimidin-2-yl)amino)-5-isopropoxy-2-methylphenyl)piperidin-1-yl)-4,14-dioxo-6,9,12-trioxa-3-azatetradecanoyl)-4-hydroxy-N-(4-(4-methylthiazol-5-yl)benzyl)pyrrolidine-2-carboxamide]",< 20
4,"Cc1cc(Nc2ncc(Cl)c(Nc3ccccc3S(=O)(=O)C(C)C)n2)c(OC(C)C)cc1C1CCN(C(=O)CCOCCOCCOCCC(=O)N[C@H](C(=O)N2C[C@H](O)C[C@H]2C(=O)NCc2ccc(-c3scnc3C)cc2)C(C)(C)C)CC1 [CZ47-18, (2S,4R)-1-((S)-2-(tert-Butyl)-16-(4-(4-((5-chloro-4-((2-(isopropylsulfonyl)phenyl)amino)pyrimidin-2-yl)amino)-5-isopropoxy-2-methylphenyl)piperidin-1-yl)-4,16-dioxo-7,10,13-trioxa-3-azahexadecanoyl)-4-hydroxy-N-(4-(4-methylthiazol-5-yl)benzyl)pyrrolidine-2-carboxamide]",< 20
5,"Cc1cc(Nc2ncc(Cl)c(Nc3ccccc3S(=O)(=O)C(C)C)n2)c(OC(C)C)cc1C1CCN(C(=O)CCOCCOCCOCCOCCC(=O)N[C@H](C(=O)N2C[C@H](O)C[C@H]2C(=O)NCc2ccc(-c3scnc3C)cc2)C(C)(C)C)CC1 [CZ47-19, (2S,4R)-1-((S)-2-(tert-Butyl)-19-(4-(4-((5-chloro-4-((2-(isopropylsulfonyl)phenyl)amino)pyrimidin-2-yl)amino)-5-isopropoxy-2-methylphenyl)piperidin-1-yl)-4,19-dioxo-7,10,13,16-tetraoxa-3-azanonadecanoyl)-4-hydroxy-N-(4-(4-methylthiazol-5-yl)benzyl)pyrrolidine-2-carboxamide]",< 20
6,"Cc1cc(Nc2ncc(Cl)c(Nc3ccccc3S(=O)(=O)C(C)C)n2)c(OC(C)C)cc1C1CCN(C(=O)COCCOCCOCCOCCOCC(=O)N[C@H](C(=O)N2C[C@H](O)C[C@H]2C(=O)NCc2ccc(-c3scnc3C)cc2)C(C)(C)C)CC1 [CZ47-20, (2S,4R)-1-((S)-2-(tert-Butyl)-20-(4-(4-((5-chloro-4-((2-(isopropylsulfonyl)phenyl)amino)pyrimidin-2-yl)amino)-5-isopropoxy-2-methylphenyl)piperidin-1-yl)-4,20-dioxo-6,9,12,15,18-pentaoxa-3-azaicosanoyl)-4-hydroxy-N-(4-(4-methylthiazol-5-yl)benzyl)pyrrolidine-2-carboxamide]",< 20
7,"Cc1cc(Nc2ncc(Cl)c(Nc3ccccc3S(=O)(=O)C(C)C)n2)c(OC(C)C)cc1C1CCN(C(=O)CCOCCOCCOCCOCCOCCC(=O)N[C@H](C(=O)N2C[C@H](O)C[C@H]2C(=O)NCc2ccc(-c3scnc3C)cc2)C(C)(C)C)CC1 [CZ47-21, (2S,4R)-1-((S)-2-(tert-Butyl)-22-(4-(4-((5-chloro-4-((2-(isopropylsulfonyl)phenyl)amino)pyrimidin-2-yl)amino)-5-isopropoxy-2-methylphenyl)piperidin-1-yl)-4,22-dioxo-7,10,13,16,19-pentaoxa-3-azadocosanoyl)-4-hydroxy-N-(4-(4-methylthiazol-5-yl)benzyl)pyrrolidine-2-carboxamide]",< 20
8,"Cc1cc(Nc2ncc(Cl)c(Nc3ccccc3S(=O)(=O)C(C)C)n2)c(OC(C)C)cc1C1CCN(C(=O)CCC(=O)N[C@H](C(=O)N2C[C@H](O)C[C@H]2C(=O)NCc2ccc(-c3scnc3C)cc2)C(C)(C)C)CC1 [CZ47-22, (2S,4R)-1-((S)-2-(4-(4-(4-((5-Chloro-4-((2-(isopropylsulfonyl)phenyl)amino)pyrimidin-2-yl)amino)-5-isopropoxy-2-methylphenyl)piperidin-1-yl)-4-oxobutanamido)-3,3-dimethylbutanoyl)-4-hydroxy-N-(4-(4-methylthiazol-5-yl)benzyl)pyrrolidine-2-carboxamide]",20 to 80
9,"Cc1cc(Nc2ncc(Cl)c(Nc3ccccc3S(=O)(=O)C(C)C)n2)c(OC(C)C)cc1C1CCN(C(=O)CCCCCC(=O)N[C@H](C(=O)N2C[C@H](O)C[C@H]2C(=O)NCc2ccc(-c3scnc3C)cc2)C(C)(C)C)CC1 [CZ47-25, (2S,4R)-1-((S)-2-(7-(4-(4-((5-Chloro-4-((2-(isopropylsulfonyl)phenyl)amino)pyrimidin-2-yl)amino)-5-isopropoxy-2-methylphenyl)piperidin-1-yl)-7-oxoheptanamido)-3,3-dimethylbutanoyl)-4-hydroxy-N-(4-(4-methylthiazol-5-yl)benzyl)pyrrolidine-2-carboxamide]",> 80
10,"Cc1cc(Nc2ncc(Cl)c(Nc3ccccc3S(=O)(=O)C(C)C)n2)c(OC(C)C)cc1C1CCN(C(=O)CCCCCCC(=O)N[C@H](C(=O)N2C[C@H](O)C[C@H]2C(=O)NCc2ccc(-c3scnc3C)cc2)C(C)(C)C)CC1 [CZ47-26, (2S,4R)-1-((S)-2-(8-(4-(4-((5-Chloro-4-((2-(isopropylsulfonyl)phenyl)amino)pyrimidin-2-yl)amino)-5-isopropoxy-2-methylphenyl)piperidin-1-yl)-8-oxooctanamido)-3,3-dimethylbutanoyl)-4-hydroxy-N-(4-(4-methylthiazol-5-yl)benzyl)pyrrolidine-2-carboxamide]",> 80
11,"Cc1cc(Nc2ncc(Cl)c(Nc3ccccc3S(=O)(=O)C(C)C)n2)c(OC(C)C)cc1C1CCN(C(=O)CCCCCCCC(=O)N[C@H](C(=O)N2C[C@H](O)C[C@H]2C(=O)NCc2ccc(-c3scnc3C)cc2)C(C)(C)C)CC1 [CZ47-27, (2S,4R)-1-((S)-2-(9-(4-(4-((5-Chloro-4-((2-(isopropylsulfonyl)phenyl)amino)pyrimidin-2-yl)amino)-5-isopropoxy-2-methylphenyl)piperidin-1-yl)-9-oxononanamido)-3,3-dimethylbutanoyl)-4-hydroxy-7V-(4-(4-methylthiazol-5-yl)benzyl)pyrrolidine-2-carboxamide]",> 80
